The nature of data set [1]: Physical stability test of aqueous metronidazole compositions (crystal formation or precipitation). It counts as physicochemical. The following applies: for Concentration required to obtain a stable aqueous solution of 1.0% metronidazole: as the only solubility enhancing agent. On the procedure:
The solubility enhancing effect of the combination of urea and hydroxyalkyl urea in increasing the solubility of metronidazole in the aqueous compositions is evaluated by physical stability of the prepared compositions.
Therefore, the formulations are subject to a physical stability test. The protocol for the stability test is as follows: metronidazole and the solubility enhancing agents are combined with water either at room temperature or elevated temperature while stirring until dissolved. The solutions are permitted to cool to room temperature. Customary auxiliaries and additives may be added to the aqueous solutions containing solubilized metronidazole and solubility enhancing agents. The solutions may be gelled by using the suitable gelling agents. The compositions both in gel or solution form are then packaged in clear glass vials and sealed. The vials are kept at room temperature for 24 hours and monitored for crystal formation or precipitation. After 24 hours, the vials are placed in a refrigerator maintained at a temperature of about 4° C. for 7 days. After 7 days, the vials are removed from the refrigerator. Evidence of crystal formation or precipitation in the compositions is examined.
Each formulation was prepared by combining urea and metronidazole in water (q.s 100%). The mixture was kept at a temperature of about 45° C. while stirring until dissolved. The solutions were permitted to cool to room temperature, packaged and sealed in glass vials. The stability tests described in Example 1 were performed and the test results were recorded.
Each formulation was prepared by combining N-2-hydroxyethyl urea and metronidazole in water (q.s 100%). The mixture was kept at a temperature of about 45°C. while stirring until dissolved. The solutions were permitted to cool to room temperature, packaged and sealed in glass vials. The stability tests described in Example 1 were performed and the test results were recorded.
Each formulation was prepared by combining N-2-hydroxyethyl urea, urea, and metronidazole in water (q.s 100%). The mixture was kept either at room temperature or at a temperature of about 45° C. while stirring until dissolved. The solutions were permitted to cool to room temperature, packaged and sealed in glass vials. The stability tests described in Example 1 were performed and the test results were recorded. […]

The conditions of data set [2]: at 25 °C; cited from earlier work.

Bounds are passed on as bounds.

With `Cc1ncc([N+](=O)[O-])n1CCO` [Metronidazole, 1-(2-hydroxyethyl)-2-methyl-5-nitroimidazole], the “Results from stability test” value is listed as “Crystals” in data set [1] (1.0% N-2-hydroxyethyl urea, 7.0% urea, 1.0% metronidazole in water, 7 days at about 4 °C); “Clear” in data set [1] (1.0% N-2-hydroxyethyl urea, 8.0% urea, 1.0% metronidazole in water, 7 days at about 4 °C); “Clear” in data set [1] (1.0% N-2-hydroxyethyl urea, 9.0% urea, 1.0% metronidazole in water, 7 days at about 4 °C); “Clear” in data set [1] (5.0% N-2-hydroxyethyl urea, 2.0% urea, 1.0% metronidazole in water, 7 days at about 4 °C); “stable” in data set [1] (5.0% N-2-hydroxyethyl urea, 2.0% urea, 1.0% metronidazole in water, 7 days at about 4 °C, listed as metronidazole); “Clear” in data set [1] (5.0% N-2-hydroxyethyl urea, 3.0% urea, 1.0% metronidazole in water, 7 days at about 4 °C). Further, the “Results from stability test” value is “Clear” in data set [1] (5.0% N-2-hydroxyethyl urea, 4.0% urea, 1.0% metronidazole in water, 7 days at about 4 °C); “Clear” in data set [1] (5.0% N-2-hydroxyethyl urea, 5.0% urea, 1.0% metronidazole in water, 7 days at about 4 °C); “Crystals formed” in data set [1] (7% urea, 1.0% metronidazole in water, 24 h room temperature then 7 days at about 4 °C); “Crystals” in data set [1] (8.0% N-2-hydroxyethyl urea, 1.0% urea, 1.0% metronidazole in water, 7 days at about 4 °C); “Clear” in data set [1] (8.0% N-2-hydroxyethyl urea, 8.0% urea, 1.2% metronidazole in water, 7 days at about 4 °C); “Crystals formed” in data set [1] (8% urea, 1.0% metronidazole in water, 24 h room temperature then 7 days at about 4 °C). The “Results from stability test” value in data set [1] (9.0% N-2-hydroxyethyl urea, 1.0% urea, 1.0% metronidazole in water, 7 days at about 4 °C) was “Crystals”; in data set [1] (9% urea, 1.0% metronidazole in water, 24 h room temperature then 7 days at about 4 °C), “Crystals formed”; in data set [1] (10.0% N-2-hydroxyethyl urea, 1.0% urea, 1.0% metronidazole in water, 7 days at about 4 °C), “Clear”; in data set [1] (10% urea, 1.0% metronidazole in water, 24 h room temperature then 7 days at about 4 °C), “Clear”; in data set [1] (13% N-2-hydroxyethyl urea, 1.0% metronidazole in water, 24 h room temperature then 7 days at about 4 °C), “Crystals formed”; in data set [1] (14% N-2-hydroxyethyl urea, 1.0% metronidazole in water, 24 h room temperature then 7 days at about 4 °C), “Crystals formed”. The “Results from stability test” value is “Crystals formed” in data set [1] (15% N-2-hydroxyethyl urea, 1.0% metronidazole in water, 24 h room temperature then 7 days at about 4 °C) and “Clear” in data set [1] (16% N-2-hydroxyethyl urea, 1.0% metronidazole in water, 24 h room temperature then 7 days at about 4 °C).
Regarding `NC(=O)NCCO` [N-2-hydroxyethyl urea], the “Concentration required to obtain a stable aqueous solution of 1.0% metronidazole” value in data set [1] was “about 16%”. The “Concentration of N-2-hydroxyethyl urea needed to obtain a stable aqueous solution of 1.0% metronidazole” value in data set [1] (concentration of urea is 1.0%) is listed as not below 9.0%.
For `NC(N)=O` [urea], the “Concentration required to obtain a stable aqueous solution of 1.0% metronidazole” value in data set [1] is “about 10%”. For the same molecule, the “Concentration of urea needed to obtain a stable aqueous solution of 1.0% metronidazole” value in data set [1] (concentration of N-2-hydroxyethyl urea is 1.0%) is not below 8.0%. For the same molecule, the “N-2-hydroxyethyl urea functionally equivalent to 1% urea in inducing the solubility enhancing effect” value in data set [1] (from Examples 2 and 3) is given as “about 1.6%”. Also, the Water solubility limit entry in data set [2] was “about 50 % by weight”.

The record behind these values is patent US20080287515A1, “Topical compositions containing metronidazole” (priority 2007, published 2008).
